Patent US20140155445A1, “Compounds and Methods for Treating Cancer and Diseases of the Central Nervous System” (Osta Biotechnologies Inc., priority 2007, published 2014)

Experiments:
HO-2 (rat brain) = target: T1, HO-2 (rat brain) (Rattus norvegicus, UniProt P23711); assay: HO enzymatic activity in rat brain microsomal fraction (CO formed from methemalbumin, gas chromatography); type: biochemical; details: rat brain microsomes; average ± standard deviation of replicate experiments; hydrochloride; read-out: IC50 HO-2 (rat brain)/μM
T1 construct: brain microsomes were used as a source of HO-2; from tissue; host or cells: brain microsomal fraction of adult male Sprague-Dawley rats
T1 sequence (P23711 1-315): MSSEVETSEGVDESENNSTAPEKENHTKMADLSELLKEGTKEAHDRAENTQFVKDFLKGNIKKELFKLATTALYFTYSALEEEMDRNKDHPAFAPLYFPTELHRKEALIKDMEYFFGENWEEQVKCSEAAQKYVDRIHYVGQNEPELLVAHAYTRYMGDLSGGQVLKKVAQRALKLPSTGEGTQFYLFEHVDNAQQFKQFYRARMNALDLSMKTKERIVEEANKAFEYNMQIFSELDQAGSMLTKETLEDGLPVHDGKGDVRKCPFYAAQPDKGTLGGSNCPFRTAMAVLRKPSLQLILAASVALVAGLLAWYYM

[1] = system: human metastatic prostate cancer PC-3M cells; assay: Orthotopic PC-3M prostate cancer model in SCID mice; type: in vivo
Text: PC-3 & PC-3M (human prostate carcinoma). The PC-3 human prostate cancer cell line was originally obtained from the American Type Culture Collection (Rockville, Md.). The PC-3M cell line was kindly provided by Dr. Issac (MD Anderson Cancer Center). This cell variant was derived from a liver metastasis produced by the parental PC-3 cells growing in the spleen of a nude mouse [Pettaway C A, Pathak S, Greene G, et al. Selection of highly metastatic variants of different human prostate carcinomas utilizing orthotopic implantation in nude mice.
Male SCID mice were housed in laminar flow under specific pathogen-free conditions and used at 8-9 weeks of age. Animals were maintained in the LDI facilities approved by the Laboratory Animal Care in accordance with current Canadian regulations and standards for the use of animals for research.
Mice were anesthesized with isofluorane given by inhalation and placed in a supine position. […] A low midline incision was made and the prostate was exposed. Fifty microliters of HBSS containing 1×10^6 cells was injected into a lateral lobe of the prostate. The wound was closed with surgical metal clips in two layers, the muscle layer first and then the skin layer using stainless steel clips (autoclips: 9 mm; Clay Adams Inc., Parsippany, N.J.). […] Control groups received the vehicle alone. Taxol™ was given either ip or iv as indicated.
Primary tumors in the prostate were excised, measured, and weighed. When applicable, immunohistochemistry and H&E staining were conducted on one part of the tumor, fixed in formalin and embedded in paraffin or OCT compound (Miles Inc., Elkhart, Ind.); the later was rapidly frozen in liquid nitrogen, and stored at −70° C. Macroscopically enlarged regional lymph nodes were harvested and the presence of metastatic disease was confirmed by histology.
The in vivo data was analyzed using the Mann-Whitney U test.

[2] = system: PC-3 (human prostate carcinoma); assay: Prostate carcinoma model PC-3 in SCID mice
Text: • Species and strain: Mouse (Mus musculus); female SCID (MDA231 and OVCAR3), male SCID (PC-3, HCT116); male CD57 B16 mice (BL16-BL6) • Age: 6-8 weeks old. • Supplier: Charles River Laboratories, Inc., St-Constant, Quebec, Canada. • Acclimation: Mice were acclimated to laboratory conditions for approximately 1 week prior to tumor cell inoculation. • Identification: Mice were identified by ear punch combination. • Housing: Mice were housed in groups of 3-5 in a designated animal facility with a temperature of 22° C., a relative humidity of 40-50%, and a 12 hr light/dark cycle.
PC-3 (human prostate carcinoma). These cells were originally received from the ATCC. Early passage cells (tested free of mycoplasma) were grown to 60% confluence in DMEM medium supplemented with 10% fetal bovine serum, and antibiotics. Cell harvesting was performed using trypsin-EDTA solution.
Exponentially growing cells were harvested using trypsin-EDTA solution. […] Cell viability was confirmed by trypan blue staining. […] One to 2 millions cells suspended in 0.1 mL phosphate buffer solution was implanted into the mammary fat pad (MCF7) or subcutaneously into the axillary region of the right flank of recipient SCID mice. All animals were inoculated at the same site.
Mice were subjected to general examination on daily basis. […] Control groups received the vehicle alone. Chemotherapy drugs were also given by intraperitoneal route according to the schedule described below.
Primary tumor growth was monitored every second to fourth day using calipers. Relative tumor volume (cm^3) was determined by the formula:
Body weights were monitored every third to fifth day. Animals experiencing signs of discomfort were sacrificed immediately (in some cases they were replaced by spared mice). […] Mice were sacrificed by cervical dislocation and immediately subjected to full autopsy.

[3] = QC-56 30 mg/kg intraperitoneally daily for 12 days, Taxol 10 mg/kg i.p. 3 cycles
[4] = QC-56 30 mg/kg intravenously daily for 12 days, Taxol 10 mg/kg i.p. 3 cycles

Brc1ccc(CCC2(Cn3ccnc3)OCCO2)cc1.Cl [QC-56, 1-((2-(2-(4-Bromophenyl)ethyl)-1,3-dioxolan-2-yl)methyl)-1H-imidazole hydrochloride]
IC50 (HO-2 (rat brain)): ≥ 100 µM | inhibition of tumor growth [1, 3]: 34% | reduction in microscopic lymph node metastases [1, 3]: 59% | inhibition of tumor growth [1, 4]: 58% | reduction in microscopic lymph node metastases [1, 4]: 76% | reduction in microscopic lymph node metastases ([1]; QC-56 40 mg/kg daily for 24 days, Taxol 10 mg/kg, 4 cycles): 48% | inhibition of tumor growth compared to untreated mice ([1]; QC-56 40 mg/kg daily for 24 days, Taxol 10 mg/kg, 4 cycles, 3 administrations per cycle): 35% | Body Weights (g) d8 (mean + SE) ([2]; PC-3 mice, treatment day 8): 22.30 ± 7.88 g | Body Weights (g) d42 (mean + SE) ([2]; PC-3 mice, treatment day 42): 18.10 ± 7.38 g | inhibition of tumor growth compared to vehicle alone ([2]; QC-56 60 mg/kg/ip, Taxol 10 mg/kg): approximately 25%
